Assay results from US20150274719A1, “AMINO-SUBSTITUTED IMIDAZO[1,2-A]PYRIDINECARBOXAMIDES AND THEIR USE” (BAYER PHARMA AKTIENGESELLSCHAFT, priority 2012, published 2015).
Counter-ions that a name gives are not always drawn.

Target: T1, recombinant guanylate cyclase reporter cell line (Rattus norvegicus, UniProt P19686+P20595)
T1 construct: expressed in transfected cells; host or cells: recombinant reporter cell line
T1 sequence (P19686 1-690): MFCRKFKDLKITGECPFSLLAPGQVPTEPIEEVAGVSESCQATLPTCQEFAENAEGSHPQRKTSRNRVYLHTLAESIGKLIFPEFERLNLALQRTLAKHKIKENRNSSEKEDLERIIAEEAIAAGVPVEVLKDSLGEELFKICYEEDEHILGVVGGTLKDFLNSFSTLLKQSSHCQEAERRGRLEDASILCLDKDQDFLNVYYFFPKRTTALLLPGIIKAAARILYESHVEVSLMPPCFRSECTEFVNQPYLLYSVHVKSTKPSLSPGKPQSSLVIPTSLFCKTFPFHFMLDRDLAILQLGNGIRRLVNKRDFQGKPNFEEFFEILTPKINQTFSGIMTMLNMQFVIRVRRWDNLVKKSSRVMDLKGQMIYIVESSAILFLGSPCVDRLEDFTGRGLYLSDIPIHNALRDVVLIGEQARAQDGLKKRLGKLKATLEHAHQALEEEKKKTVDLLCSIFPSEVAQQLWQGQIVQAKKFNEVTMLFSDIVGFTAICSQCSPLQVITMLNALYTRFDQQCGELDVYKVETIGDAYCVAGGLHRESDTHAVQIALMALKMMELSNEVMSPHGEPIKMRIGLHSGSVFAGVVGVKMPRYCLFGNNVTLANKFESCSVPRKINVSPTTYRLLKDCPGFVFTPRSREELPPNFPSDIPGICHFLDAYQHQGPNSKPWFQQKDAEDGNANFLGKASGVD
T1 sequence (P20595 1-619): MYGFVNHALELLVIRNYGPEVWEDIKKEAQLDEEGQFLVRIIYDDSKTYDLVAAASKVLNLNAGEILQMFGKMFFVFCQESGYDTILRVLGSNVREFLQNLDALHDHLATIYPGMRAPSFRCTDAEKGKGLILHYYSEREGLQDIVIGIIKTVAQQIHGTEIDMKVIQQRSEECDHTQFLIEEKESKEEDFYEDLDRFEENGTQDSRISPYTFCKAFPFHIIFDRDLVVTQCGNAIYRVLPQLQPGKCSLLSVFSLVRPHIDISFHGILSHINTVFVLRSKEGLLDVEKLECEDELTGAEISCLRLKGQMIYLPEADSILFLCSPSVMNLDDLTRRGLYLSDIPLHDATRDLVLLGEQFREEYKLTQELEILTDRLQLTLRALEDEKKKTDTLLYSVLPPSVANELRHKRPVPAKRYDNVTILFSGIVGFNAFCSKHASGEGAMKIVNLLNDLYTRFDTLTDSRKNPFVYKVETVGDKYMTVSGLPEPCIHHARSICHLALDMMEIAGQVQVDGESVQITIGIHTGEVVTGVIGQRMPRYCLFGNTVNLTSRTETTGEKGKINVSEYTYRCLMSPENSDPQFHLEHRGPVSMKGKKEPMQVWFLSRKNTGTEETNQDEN
Experiment: Action on recombinant guanylate cyclase reporter cell line
Assay type: cell-based
Details: in some cases mean values from individual determinations
How it was run: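 Whole-cell reporter assay with recombinant guanylate cyclase; endpoint = minimal effective concentration.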

SMILES | MEC (minimal effective concentration)
Cc1nc2c(OCc3c(F)cccc3F)cc(Cl)cn2c1C(=O)NCC1CCCCN1 (racemic) [Example 118, rac-6-chloro-8-[(2,6-difluorobenzyl)oxy]-2-methyl-N-(piperidin-2-ylmethyl)imidazo[1,2-a]-pyridine-3-carboxamide] | 1.00 µM
Cc1nc2c(OCc3c(F)cccc3F)cccn2c1C(=O)NC(CN)c1ccc(F)cc1F (stereo not drawn) [Example 21, ent-N-[2-Amino-1-(2,4-difluorophenyl)ethyl]-8-[(2,6-difluorobenzyl)oxy]-2-methylimidazo[1,2-a]-pyridine-3-carboxamide] | 0.30 µM
Cc1nc2c(OCc3c(F)cccc3F)cccn2c1C(=O)NCC(N)C(F)(F)F (single isomer, unassigned) [Example 208, ent-N-(2-Amino-3,3,3-trifluoropropyl)-8-[(2,6-difluorobenzyl)oxy]-2-methylimidazo[1,2-a]-pyridine-3-carboxamide] | 0.30 µM
Cc1nc2c(OCc3c(F)cccc3F)cccn2c1C(=O)NCC(N)CC(F)(F)F (single isomer, unassigned) [Example 126, ent-N-(2-Amino-4,4,4-trifluorobutyl)-8-[(2,6-difluorobenzyl)oxy]-2-methylimidazo[1,2-a]pyridine-3-carboxamide] | 0.30 µM
Cc1nc2c(OCc3c(F)cccc3F)cc(Cl)cn2c1C(=O)NCCN(CC(F)F)C1CC1 [Example 150, 6-chloro-N-{2-[cyclopropyl(2,2-difluoroethyl)-amino]ethyl}-8-[(2,6-difluorobenzyl)oxy]-2-methylimidazo[1,2-a]pyridine-3-carboxamide] | 0.10 µM
NCC(NC(=O)c1cnc2c(OCc3c(F)cccc3F)cccn12)c1ccc(F)c(F)c1 (stereo not drawn) [Example 55, ent-N-[2-amino-1-(3,4-difluorophenyl)ethyl]-8-[(2,6-difluorobenzyl)oxy]imidazo[1,2-a]pyridine-3-carboxamide dihydrochloride] | 2.00 µM
Cc1cc(OCc2c(F)cccc2F)c2nc(C)c(C(=O)NCC(C)(N)Cc3nc4ccccc4s3)n2c1 (racemic) [Example 310, rac-N-[2-amino-3-(1,3-benzothiazol-2-yl)-2-methylpropyl]-8-[(2,6-difluorobenzyl)oxy]-2,6-dimethylimidazo[1,2-a]pyridine-3-carboxamide] | 0.30 µM
CCN1C2CCCC1CC(NC(=O)c1c(C)nc3c(OCc4c(F)cccc4F)cccn13)C2 (stereo not drawn) [Example 71, 8-[(2,6-Difluorobenzyl)oxy]-N-(9-ethyl-9-azabicyclo[3.3.1]non-3-yl)-2-methylimidazo[1,2-a]-pyridine-3-carboxamide] | 0.30 µM
Cc1nc2c(OCc3c(F)cccc3F)cccn2c1C(=O)NC1CC(C)(C)NC(C)(C)C1 [Example 82, 8-[(2,6-Difluorobenzyl)oxy]-2-methyl-N-(2,2,6,6-tetramethylpiperidin-4-yl)imidazo[1,2-a]-pyridine-3-carboxamide] | 0.20 µM
Cc1nc2c(OCc3c(F)cccc3F)cccn2c1C(=O)NCC(N)COC(C)C (racemic) [Example 205, rac-N-(2-Amino-3-isopropoxypropyl)-8-[(2,6-difluorobenzyl)oxy]-2-methylimidazo[1,2-a]-pyridine-3-carboxamide] | 0.30 µM
Cc1cc(OCc2c(F)cccc2F)c2nc(C)c(C(=O)NCCNC(C)C)n2c1 (racemic) [Example 135, rac-8-[(2,6-difluorobenzyl)oxy]-N-[2-(isopropylamino)ethyl]-2,6-dimethylimidazo[1,2-a]pyridine-3-carboxamide] | 1.00 µM
Cc1cc(OCc2c(F)cccc2F)c2nc(C)c(C(=O)NCC(N)CC(F)(F)F)n2c1 (single isomer, unassigned) [Example 128, ent-N-(2-Amino-4,4,4-trifluorobutyl)-8-[(2,6-difluorobenzyl)oxy]-2,6-dimethylimidazo[1,2-a]-pyridine-3-carboxamide] | 0.10 µM
CCCC(C)(N)CNC(=O)c1c(C)nc2c(OCc3c(F)c(F)cc(F)c3F)cc(C)cn12 (racemic) [Example 311, rac-N-(2-amino-2-methylpentyl)-2,6-dimethyl-8-[(2,3,5,6-tetrafluorobenzyl)oxy]imidazo[1,2-a]pyridine-3-carboxamide] | 0.30 µM
COc1ccc(F)c(COc2cc(C)cn3c(C(=O)NCC(C)(N)CF)c(C)nc23)c1F (stereo not drawn) [Example 361, ent-N-(2-amino-3-fluoro-2-methylpropyl)-8-[(2,6-difluoro-3-methoxybenzyl)oxy]-2,6-dimethylimidazo[1,2-a]pyridine-3-carboxamide] | 1.00 µM
Cc1nc2c(OCc3c(F)cccc3F)cc(Cl)cn2c1C(=O)NCC1(N)CCCC1 [Example 42, N-[(1-aminocyclopentyl)methyl]-6-chloro-8-[(2,6-difluorobenzyl)oxy]-2-methylimidazo[1,2-a]pyridine-3-carboxamide] | 1.00 µM
Cc1cc(OCc2c(F)cccc2F)c2nc(C)c(C(=O)NC3CCC3(C)N)n2c1 (single isomer, unassigned; enantiomer a) [Example 332, ent-N-[2-amino-2-methylcyclobutyl]-8-[(2,6-difluorobenzyl)oxy]-2,6-dimethylimidazo[1,2-a]pyridine-3-carboxamide (Enantiomer A)] | 1.00 µM
Cc1nc2c(OCc3c(F)cccc3F)cccn2c1C(=O)NC1CCNc2ccc(C(F)(F)F)cc21 (single isomer, unassigned; ent-8) [Example 111, ent-8-[(2,6-difluorobenzyl)oxy]-2-methyl-N-[6-(trifluoromethyl)-1,2,3,4-tetrahydroquinolin-4-yl]imidazo[1,2-a]pyridine-3-carboxamide] | 1.00 µM
CCCC(C)(N)CNC(=O)c1c(C)nc2c(OCc3c(F)cccc3F)c(F)ccn12 (racemic) [Example 277, rac-N-(2-Amino-2-methylpentyl)-8-[(2,6-difluorobenzyl)oxy]-7-fluoro-2-methylimidazo[1,2-a]-pyridine-3-carboxamide] | 1.00 µM
CC=CCC(N)CNC(=O)c1c(C)nc2c(OCc3c(F)cccc3F)cc(C)cn12 (racemic) [Example 406, rac-N-[(4E/Z)-2-aminohex-4-en-1-yl]-8-[(2,6-difluorobenzyl)oxy]-2,6-dimethylimidazo[1,2-a]pyridine-3-carboxamide] | 0.10 µM
Cc1nc2c(OCc3c(F)cccc3F)cccn2c1C(=O)NCCNc1ccc(F)cc1 [Example 79, 8-[(2,6-difluorobenzyl)oxy]-N-{2-[(4-fluoro-phenyl)amino]ethyl}-2-methylimidazo[1,2-a]-pyridine-3-carboxamide] | 1.00 µM
Cc1nc2c(OCc3c(F)cccc3F)cccn2c1C(=O)NCC(C)(C)CN [Example 103, N-(3-amino-2,2-dimethylpropyl)-8-[(2,6-difluorobenzyl)oxy]-2-methylimidazo[1,2-a]-pyridine-3-carboxamide] | 3.00 µM
Cc1cc(OCc2c(F)cccc2F)c2nc(C)c(C(=O)NCC(N)c3cnn(C)c3)n2c1 (racemic) [Example 370, rac-N-[2-amino-2-(1-methyl-1H-pyrazol-4-yl)ethyl]-8-[(2,6-difluorobenzyl)oxy]-2,6-dimethylimidazo[1,2-a]pyridine-3-carboxamide] | 3.00 µM
Cc1nc2c(OCc3c(F)cccc3F)cccn2c1C(=O)NC1CC(C)(C)N(C)C(C)(C)C1 [Example 83, 8-[(2,6-difluorobenzyl)oxy]-2-methyl-N-(1,2,2,6,6-pentamethylpiperidin-4-yl)imidazo[1,2-a]pyridine-3-carboxamide] | 0.10 µM
Cc1nc2c(OCC3CCCCC3)cccn2c1C(=O)NC(CN)c1ccc(F)c(F)c1 (racemic) [Example 46, rac-N-[2-Amino-1-(3,4-difluorophenyl)ethyl]-8-(cyclohexylmethoxy)-2-methylimidazo[1,2-a]-pyridine-3-carboxamide] | 1.00 µM
